Literature values as cited in patent US20050013753A1, “Heat-transfer systems” (priority 2003, published 2005).
Read-outs that look alike come from different tables or passages of the source.

Assays:
[1] = in water; DuPont MSDS
mammalian cells [2] = system: mammalian cells
rats [3] = conditions: in rats, DuPont MSDS
[4] = animal data; DuPont MSDS
rabbits = conditions: in rabbits; DuPont MSDS
[5] = animal data
[6] = animal data; DuPont MSDS; remark: listed apart in the source
bacterial cells = conditions: in vitro
mammalian cells [7] = conditions: in vitro
mouse = conditions: in vivo mouse
[8] = animal data; DuPont MSDS; remark: listed apart in the source
rats [9] = system: rats
rats [10] = conditions: in rats; DuPont MSDS
rats [11] = conditions: repeated inhalation exposure
[12] = DuPont MSDS

## OCCCO [1,3-Propanediol, 1,3-propanediol]
[1]
  pH: pH: 4.5-7 in water. Color: Colorless.
Mammalian cells [2]; 1,3-propanediol manufactured by DuPont
  Chromosome aberrations, repeat study: negative for all test conditions
Mammalian cells [2]; under certain conditions
  Chromosome aberrations: An increase in chromosome aberrations was observed
Rats [3]
  Inhalation 4 hour ALC: Inhalation 4 hour ALC: >5.0 mg/L in rats
[4]
  Skin irritation: slight skin irritant
rabbits
  Dermal LD50: > 20,000 mg/kg
[5]
  Toxicity to the fetus: not uniquely toxic to the fetus
[6]
  Eye irritation: not an eye irritant
Bacterial cells
  Mutagenicity: not mutagenic
Mammalian cells [7]
  Mutagenicity: not mutagenic
mouse
  Micronucleus assay result: negative
[8]
  Skin sensitization: not a skin sensitizer.
Rats [9]; oral repeated dose study in rats
  Adverse effects to sperm and reproductive organs: no adverse effects to sperm and reproductive organs were observed
Rats [9]; rats, repeated oral gavage
  Changes in clinical pathology, pathology (including sperm analyses), or in-life measurements: no toxicologically important changes
Rats [9]; rats, repeated oral gavage, highest dose tested
  NOEL: 1000 mg/kg/day
Rats [10]
  Oral LD50: 15,000 mg/kg
Rats [11]
  Changes in clinical pathology, pathology, or in-life measurements: no toxicologically important changes
  NOEL: 1800 mg/m3
[12]
  Chemical Stability: Chemical Stability: Stable at normal temperatures and storage conditions.
